From ChEMBL document CHEMBL3351808, “Thiophenes, polyacetylenes and terpenes from the aerial parts of Eclipata prostrate” (Bioorg Med Chem, 2014)
Activity calls are given as the source filed them. The calls are words filed in the database; no cut-off is given here.

How the values were obtained:
Dipeptidyl peptidase 4 = Dipeptidyl peptidase 4 (Homo sapiens, UniProt P27487); test: Inhibition of DPP4 in human plasma using Gly-Pro-AMC substrate incubated for 20 mins by fluorometry
[1] = target: T1, Nuclear factor NF-kappa-B complex (Homo sapiens) (UniProt Q00653+P19838+Q04206); test: Inhibition of NFkappaB (unknown origin) expressed in LPS-stimulated HEK293-NF-kappaB-luc cells assessed as luminescence signals measured by relative light units at 10 ug/mL pre-treated for 4 hrs before LPS challenge for 24 hrs by luciferase assay; type: cell-based
[2] = target: T1, Nuclear factor NF-kappa-B complex (Homo sapiens); test: Inhibition of NFkappaB (unknown origin) expressed in LPS-stimulated HEK293-NF-kappaB-luc cells assessed as luminescence signals measured by relative light units at 100 ug/mL pre-treated for 4 hrs before LPS challenge for 24 hrs by luciferase assay; type: cell-based
[3] = target: T1, Nuclear factor NF-kappa-B complex (Homo sapiens); test: Inhibition of NFkappaB (unknown origin) expressed in LPS-stimulated HEK293-NF-kappaB-luc cells assessed as luminescence signals measured by relative light units at 1 ug/mL pre-treated for 4 hrs before LPS challenge for 24 hrs by luciferase assay; type: cell-based
[4] = target: T1, Nuclear factor NF-kappa-B complex (Homo sapiens); test: Inhibition of NFkappaB (unknown origin) expressed in LPS-stimulated HEK293-NF-kappaB-luc cells assessed as luminescence signals measured by relative light units at 500 ug/mL pre-treated for 4 hrs before LPS challenge for 24 hrs by luciferase assay; type: cell-based

T1 sequence (P19838 whole entry, looked up): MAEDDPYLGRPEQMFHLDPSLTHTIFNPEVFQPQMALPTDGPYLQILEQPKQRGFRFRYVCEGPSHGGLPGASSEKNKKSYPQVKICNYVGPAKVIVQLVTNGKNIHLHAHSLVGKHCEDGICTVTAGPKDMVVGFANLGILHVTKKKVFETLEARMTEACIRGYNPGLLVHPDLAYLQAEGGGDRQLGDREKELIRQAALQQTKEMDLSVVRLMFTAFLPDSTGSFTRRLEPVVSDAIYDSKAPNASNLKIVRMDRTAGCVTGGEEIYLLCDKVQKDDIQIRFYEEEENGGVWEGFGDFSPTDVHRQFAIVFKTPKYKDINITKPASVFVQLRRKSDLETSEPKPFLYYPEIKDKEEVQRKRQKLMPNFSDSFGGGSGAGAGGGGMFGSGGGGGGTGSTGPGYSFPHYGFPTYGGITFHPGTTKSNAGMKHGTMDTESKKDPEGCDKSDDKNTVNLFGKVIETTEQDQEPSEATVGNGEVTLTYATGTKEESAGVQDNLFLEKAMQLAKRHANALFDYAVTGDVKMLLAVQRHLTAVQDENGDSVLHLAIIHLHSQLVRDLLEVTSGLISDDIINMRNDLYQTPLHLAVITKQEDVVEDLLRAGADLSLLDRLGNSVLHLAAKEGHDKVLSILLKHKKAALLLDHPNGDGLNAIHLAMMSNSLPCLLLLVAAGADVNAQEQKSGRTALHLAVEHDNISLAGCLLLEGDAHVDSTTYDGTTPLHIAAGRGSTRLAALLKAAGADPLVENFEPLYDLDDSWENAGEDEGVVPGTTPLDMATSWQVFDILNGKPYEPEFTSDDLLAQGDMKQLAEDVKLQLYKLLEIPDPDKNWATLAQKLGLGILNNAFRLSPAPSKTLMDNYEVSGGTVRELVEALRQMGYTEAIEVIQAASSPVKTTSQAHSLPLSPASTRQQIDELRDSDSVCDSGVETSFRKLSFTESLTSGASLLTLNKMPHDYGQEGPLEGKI
T1 sequence (Q00653 whole entry, looked up): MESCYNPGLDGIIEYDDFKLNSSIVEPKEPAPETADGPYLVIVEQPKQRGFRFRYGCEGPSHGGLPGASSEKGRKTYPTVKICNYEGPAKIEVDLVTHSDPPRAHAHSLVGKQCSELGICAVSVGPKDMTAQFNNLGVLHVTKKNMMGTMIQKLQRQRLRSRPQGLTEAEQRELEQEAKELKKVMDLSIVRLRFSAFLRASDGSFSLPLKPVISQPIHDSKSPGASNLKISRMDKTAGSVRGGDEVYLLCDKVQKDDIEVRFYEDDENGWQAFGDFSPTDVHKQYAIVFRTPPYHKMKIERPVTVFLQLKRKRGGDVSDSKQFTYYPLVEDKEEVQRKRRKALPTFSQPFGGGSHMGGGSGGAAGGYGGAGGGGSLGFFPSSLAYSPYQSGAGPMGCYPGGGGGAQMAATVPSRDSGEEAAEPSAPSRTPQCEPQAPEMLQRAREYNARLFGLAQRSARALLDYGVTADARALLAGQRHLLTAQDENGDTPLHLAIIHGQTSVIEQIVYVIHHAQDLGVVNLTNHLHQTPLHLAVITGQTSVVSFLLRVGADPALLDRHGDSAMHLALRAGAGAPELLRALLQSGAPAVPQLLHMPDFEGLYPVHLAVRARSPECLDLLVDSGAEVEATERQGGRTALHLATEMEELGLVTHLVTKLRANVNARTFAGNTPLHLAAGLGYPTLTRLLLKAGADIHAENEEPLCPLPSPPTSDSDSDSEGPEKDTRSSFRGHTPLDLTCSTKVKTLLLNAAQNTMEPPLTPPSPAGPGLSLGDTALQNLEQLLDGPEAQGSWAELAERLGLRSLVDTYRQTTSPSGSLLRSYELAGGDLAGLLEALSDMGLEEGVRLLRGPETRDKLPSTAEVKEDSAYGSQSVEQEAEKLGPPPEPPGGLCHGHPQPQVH
T1 sequence (Q04206 whole entry, looked up): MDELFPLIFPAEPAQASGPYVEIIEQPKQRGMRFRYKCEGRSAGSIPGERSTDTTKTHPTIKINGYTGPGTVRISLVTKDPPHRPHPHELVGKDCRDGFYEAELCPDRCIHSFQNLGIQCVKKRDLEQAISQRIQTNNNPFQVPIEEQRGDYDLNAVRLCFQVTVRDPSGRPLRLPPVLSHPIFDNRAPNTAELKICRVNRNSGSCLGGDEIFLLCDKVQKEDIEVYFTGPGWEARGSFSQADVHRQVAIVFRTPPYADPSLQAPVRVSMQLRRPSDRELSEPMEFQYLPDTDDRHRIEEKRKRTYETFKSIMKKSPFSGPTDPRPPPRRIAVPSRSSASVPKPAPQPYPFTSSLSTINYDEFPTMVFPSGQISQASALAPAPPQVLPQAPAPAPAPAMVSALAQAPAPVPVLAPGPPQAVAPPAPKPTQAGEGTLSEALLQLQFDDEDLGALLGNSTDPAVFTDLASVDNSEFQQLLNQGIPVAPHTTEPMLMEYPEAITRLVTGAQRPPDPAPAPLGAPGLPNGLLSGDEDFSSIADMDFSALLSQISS
Chain of Dipeptidyl peptidase 4 (P27487 whole entry): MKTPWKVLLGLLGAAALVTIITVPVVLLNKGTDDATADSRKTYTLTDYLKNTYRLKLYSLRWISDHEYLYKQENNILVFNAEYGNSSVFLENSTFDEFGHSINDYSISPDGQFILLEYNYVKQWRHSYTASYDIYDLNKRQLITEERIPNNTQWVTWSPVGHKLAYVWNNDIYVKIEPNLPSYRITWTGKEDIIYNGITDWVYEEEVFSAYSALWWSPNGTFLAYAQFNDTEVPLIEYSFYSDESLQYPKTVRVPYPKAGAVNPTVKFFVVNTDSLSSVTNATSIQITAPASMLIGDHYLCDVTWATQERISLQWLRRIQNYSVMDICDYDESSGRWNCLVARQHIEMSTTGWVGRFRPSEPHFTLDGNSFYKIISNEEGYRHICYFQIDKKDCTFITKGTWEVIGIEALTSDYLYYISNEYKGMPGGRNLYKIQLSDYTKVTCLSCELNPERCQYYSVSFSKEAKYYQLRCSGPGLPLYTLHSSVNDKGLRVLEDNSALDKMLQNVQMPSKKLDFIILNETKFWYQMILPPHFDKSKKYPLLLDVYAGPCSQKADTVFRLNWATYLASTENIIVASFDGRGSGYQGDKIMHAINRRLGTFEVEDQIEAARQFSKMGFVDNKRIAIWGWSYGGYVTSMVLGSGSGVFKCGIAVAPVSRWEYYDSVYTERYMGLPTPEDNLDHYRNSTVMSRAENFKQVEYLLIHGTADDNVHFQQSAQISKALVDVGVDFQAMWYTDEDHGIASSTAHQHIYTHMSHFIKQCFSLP

Row | RLU [1] | RLU [2] | RLU [3] | RLU [4] | Activity [1] | Activity [2] | Activity [3] | Activity [4] | SMILES | IC50 (Dipeptidyl peptidase 4) [µM]
1 | – | – | – | – | – | – | – | – | C=CC(O)C(/C=C/C#CC#CC#CC)O[C@@H]1O[C@H](CO)[C@@H](O)[C@H](O)[C@H]1O (some centres not stated) | > 100
2 | 0.23 | 0.47 | 0.09 | 0.59 | – | – | – | – | CC1(C)CC[C@]2(C(=O)O[C@@H]3O[C@H](CO)[C@@H](O)[C@H](O)[C@H]3O)CC[C@]3(C)C(=CC[C@@H]4[C@@]5(C)CC[C@H](O[C@@H]6O[C@H](CO)[C@@H](O)[C@H](O)[C@H]6O[C@@H]6O[C@H](CO)[C@@H](O)[C@H](O)[C@H]6O)C(C)(C)[C@@H]5CC[C@]43C)[C@@H]2C1 | –
3 | 0.32 | 0.45 | 0.15 | 0.64 | – | – | – | – | C[C@]12CCC(=O)C=C1CC[C@@H]1[C@@H]2[C@@H](O)C[C@@]2(C)[C@H]1CC[C@]2(O)C(=O)CO | –
4 | 0.24 | 0.47 | 0.18 | 0.5 | – | – | – | – | C[C@H]1[C@H]2[C@H]3CC[C@@H]4[C@@]5(C)CC[C@H](O[C@@H]6O[C@H](CO)[C@@H](O)[C@H](O)[C@H]6O)C(C)(C)[C@@H]5CC[C@@]4(C)[C@]3(C)CC[C@@]2(CO)CC[C@]1(C)O | –
5 | – | – | – | – | inactive | inactive | inactive | inactive | CC(C)[C@H]1C[C@H]2O[C@@]2(C)[C@@H](O)[C@H]1O[C@@H]1O[C@H](COC(=O)/C=C/c2ccc(O)c(O)c2)[C@@H](O)[C@H](O)[C@H]1O (relative stereo) | –
6 | – | – | – | – | inactive | inactive | inactive | inactive | C[C@H]1[C@H]2[C@H]3CC[C@@H]4[C@@]5(C)CC[C@H](O[C@@H]6O[C@H](CO)[C@@H](O)[C@H](O)[C@H]6O)C(C)(C)[C@@H]5CC[C@@]4(C)[C@]3(C)C[C@H](O)[C@@]2(C)CC[C@]1(C)O | –
7 | 0.21 | 0.26 | 0.04 | 0.47 | – | – | – | – | C=CC(C)(O)CC/C=C(\C)CC/C=C(\C)CO[C@@H]1O[C@H](CO)[C@@H](O)[C@H](O)[C@H]1O (some centres not stated) | –
8 | – | – | – | – | inactive | inactive | inactive | inactive | CC(C)[C@H]1C[C@H]2O[C@@]2(C)[C@@H](O)[C@H]1O[C@@H]1O[C@H](CO)[C@@H](O)[C@H](O)[C@H]1O (relative stereo) | –
9 | – | – | – | – | inactive | inactive | inactive | inactive | CC1(C)CC[C@]2(C(=O)O[C@@H]3O[C@H](CO)[C@@H](O)[C@H](O)[C@H]3O)[C@@H](O)C[C@]3(C)C(=CC[C@@H]4[C@@]5(C)CC[C@H](O[C@@H]6O[C@H](CO)[C@@H](O)[C@H](O)[C@H]6O)C(C)(C)[C@@H]5CC[C@]43C)[C@@H]2C1 | –
10 | – | – | – | – | inactive | inactive | inactive | inactive | CC1(C)[C@@H](O[C@@H]2O[C@H](CO)[C@@H](O)[C@H](O)[C@H]2O)CC[C@]2(C)[C@H]3CC=C4[C@@H]5C[C@](C)(CO)CC[C@]5(C)[C@@H](O)C[C@@]4(C)[C@]3(C)CC[C@@H]12 | –
11 | – | – | – | – | inactive | inactive | inactive | inactive | CC1(C)CC[C@]2(C(=O)O[C@@H]3O[C@H](CO)[C@@H](O)[C@H](O)[C@H]3O)[C@H](O)C[C@]3(C)C(=CC[C@@H]4[C@@]5(C)CC[C@H](O[C@@H]6O[C@H](CO)[C@@H](O)[C@H](O)[C@H]6O[C@@H]6O[C@H](CO)[C@@H](O)[C@H](O)[C@H]6O)C(C)(C)[C@@H]5CC[C@]43C)[C@@H]2C1 | –
12 | 0.06 | 0.49 | 0.01 | 0.72 | – | – | – | – | CC1(C)C=C2[C@H]3CC[C@@H]4[C@@]5(C)CC[C@H](O[C@@H]6O[C@H](CO)[C@@H](O)[C@H](O)[C@H]6O[C@@H]6O[C@H](CO)[C@@H](O)[C@H](O)[C@H]6O)C(C)(C)[C@@H]5CC[C@@]4(C)[C@]3(C)CC[C@@]2(C(=O)O[C@@H]2O[C@H](CO)[C@@H](O)[C@H](O)[C@H]2O)CC1 | –
13 | 0.16 | 0.23 | -0.01 | 0.07 | – | – | – | – | CC1(C)CC[C@]2(C(=O)O[C@@H]3O[C@H](CO)[C@@H](O)[C@H](O)[C@H]3O)[C@H](O)C[C@]3(C)C(=CC[C@@H]4[C@@]5(C)CC[C@H](O[C@@H]6O[C@H](CO)[C@@H](O)[C@H](O)[C@H]6OS(=O)(=O)O)C(C)(C)[C@@H]5CC[C@]43C)[C@@H]2C1 | –
14 | – | – | – | – | inactive | inactive | inactive | inactive | C=C(C)[C@@H]1CC[C@]2(C(=O)O[C@@H]3O[C@H](CO)[C@@H](O)[C@H](O)[C@H]3O)CC[C@]3(C)[C@H](CC[C@@H]4[C@@]5(C)CC[C@H](O[C@@H]6O[C@H](CO)[C@@H](O)[C@H](O)[C@H]6O)C(C)(C)[C@@H]5CC[C@]43C)[C@@H]12 | –
15 | 0.22 | 0.33 | 0.08 | 0.5 | – | – | – | – | CC1(C)CC[C@]2(C(=O)O[C@@H]3O[C@H](CO)[C@@H](O)[C@H](O)[C@H]3O)[C@H](O)C[C@]3(C)C(=CC[C@@H]4[C@@]5(C)CC[C@H](O[C@@H]6O[C@H](CO)[C@@H](O)[C@H](O)[C@H]6O)C(C)(C)[C@@H]5CC[C@]43C)[C@@H]2C1 | –
16 | – | – | – | – | – | – | – | – | CC#CC#CC#C/C=C/C=C/C(CCO)O[C@@H]1O[C@H](CO)[C@@H](O)[C@H](O)[C@H]1O (some centres not stated) | > 100
17 | – | – | – | – | inactive | inactive | inactive | inactive | CC1(C)CC[C@]2(C(=O)O[C@@H]3O[C@H](CO)[C@@H](O)[C@H](O)[C@H]3O)CC[C@]3(C)C(=CC[C@@H]4[C@@]5(C)CC[C@H](O[C@@H]6O[C@H](CO)[C@@H](O)[C@H](O)[C@H]6O)C(C)(C)[C@@H]5CC[C@]43C)[C@@H]2C1 | –
